Assay results reported in paper PMC6389703, “Identification of Biologically Active Ganoderma lucidum Compounds and Synthesis of Improved Derivatives That Confer Anti-cancer Activities in vitro” (Frontiers in Pharmacology, 2019).

Assays:
MDA-MB-231 cells [1] = experiment: ROS measurement (CellROX green), MDA-MB-231; format: cell-based, human; conditions: EP 20 μM, 1 h
Procedure: SUM-149 or MDA-MB-231 were plated in 96-well plates at a density of 2 × 10^4 and 1 × 10^4 cells/well, respectively, in black 96-well clear bottom tissue culture plates and incubated for 24 h at 37°C. The mRuby-Mito-7 plasmid was obtained from Addgene (#55874 from Michael Davidson). A stable clone of MCF-7 was generated by using Fugene 6 (Roche) to transfect cells (2 × 10^5) with plasmid (2.0 μg) under neomycin selection. A stable cell line was selected by using G418 (300 μg/mL) for 2 weeks, sorted by flow cytometry, and maintained under G418 thereafter. Transfected MCF-7 cells were plated at a density of 2 × 10^4 cells/well in black 96-well clear bottom tissue culture plates and incubated overnight at 37°C. To test for ROS formation and remove background, cells were replenished with fresh PBS with 2% FBS and treated with the desired compounds for 1 h at 37°C. DMSO (0.5%) was used as a negative control, while Menadione (Mena, at 10 μM) or t-Butyl hydroperoxide (TBHP) at 100 μM final concentration were used as a positive control. To evaluate the compounds’ effects on ROS formation inhibition, the free radical scavenger N-acetyl cysteine (NAC) was used. […] Fluorescence intensity was measured in a Clariostar® plate reader (BMG LABTECH, Cary, NC, United States) at 535 nm.

MDA-MB-231 cells [2] = experiment: De novo in-cell protein synthesis (click assay); format: cell-based, human; conditions: 2 h; EP 20 μM
Procedure: First, 2.5 × 10^4 cells/well were seeded in 8-well μ-slides (Ibidi®, #80826) and incubated at 37°C for 12 h. The cells were treated with vehicle, compounds Ganoderic acid A or EP, or cycloheximide (positive control) for 2 h to determine protein synthesis as nascent proteins generated using Biovision’s EZClick^TM Global Protein Synthesis Assay Kit, (#K715-100, Milpitas, CA, United States). The assay includes a robust chemical method based on an alkyne containing o-propargyl-puromycin (OP-puro) probe, which stops translation by forming covalent conjugates with nascent polypeptide chains. Truncated polypeptides are rapidly turned over by the proteasome and can be detected based on the subsequent click reaction with a fluorescent azide. The reaction was conducted according to the manufacturer’s protocol. Cells were imaged at 20× with a Nikon C2 scanning confocal microscope, and the whole image montage was quantified by using Gen5 Software and Lionheart^TM FX Automated Microscope (BioTek, Winooski, VT, United States).

SUM-149 cells [3] = experiment: Cell migration assay (Boyden chamber); format: cell-based, human; conditions: 10 μM, 72 h
Procedure: (§1) Cell migration and invasion were measured by using Corning® FluoroBlok^TM Cell Culture Inserts and performing BD BioCoat Matrigel invasion assays (BD Biosciences, San José, CA, United States) as described in [Martinez-Montemayor et al. (2011)] and [Suarez-Arroyo et al. (2016)].

MDA-MB-231 cells [4] = experiment: Cell viability assay, MDA-MB-231; format: cell-based; conditions: Homo sapiens, Figure 4E
Procedure: Either 1 × 10^3–4.8 × 10^3 or 4 × 10^2–1.2 × 10^3 cells were seeded to each well of 96- or 384-well white polystyrene flat-bottomed plates (3610 or 8804BC, Corning) in 100 μL or 30 μL media per well, respectively. The concentrations used were experimentally determined to ensure logarithmic growth during the duration of the experiment and prevent adverse effects on cell growth by DMSO exposure. The plates were incubated at 37°C in 5% CO2 for 24 h before treatment. Stock solutions of test compounds (10 mM in DMSO) in nine 3-fold serial dilutions were dispensed via pintool (Biomek). The final concentration of DMSO was 0.3% (v/v) in each well. […] Luminescence was recorded in an Envision plate reader (PerkinElmer). […]
(§2) For the CTG assay, 3 or 4 replicate assays were conducted for each experimental condition, and a minimum of 3 independent experiments were conducted for cellular assays. The mean luminescence of each experimental treatment group was normalized as a percentage of the mean intensity of untreated controls. EC50 values (μM) were calculated by Pipeline Pilot Software (Accelrys, Enterprise Platform, San Diego, CA, United States). EC50 values (μM) from the viability assay were calculated from dose response curve-fitting via non-linear regression by using GraphPad Prism (Version 7.0, San Diego, CA, United States). […]

Sup-B15 cells = experiment: Cell Titer Glo viability assay, Sup-B15; format: cell-based; conditions: Homo sapiens, 72-h treatment
Procedure: (§3) Either 1 × 10^3–4.8 × 10^3 or 4 × 10^2–1.2 × 10^3 cells were seeded to each well of 96- or 384-well white polystyrene flat-bottomed plates (3610 or 8804BC, Corning) in 100 μL or 30 μL media per well, respectively. The concentrations used were experimentally determined to ensure logarithmic growth during the duration of the experiment and prevent adverse effects on cell growth by DMSO exposure. The plates were incubated at 37°C in 5% CO2 for 24 h before treatment. Stock solutions of test compounds (10 mM in DMSO) in nine 3-fold serial dilutions were dispensed via pintool (Biomek). The final concentration of DMSO was 0.3% (v/v) in each well. […] Luminescence was recorded in an Envision plate reader (PerkinElmer).
as §2

SUM-149 cells [5] = experiment: Matrigel invasion assay (Transwell); format: cell-based, human; conditions: 72 h
Procedure: as §1

Uocb-1 cells = experiment: Cell Titer Glo viability assay, Uocb-1; format: cell-based; conditions: Homo sapiens, UoC-B1, 72-h treatment
Procedure: as §3, §2

SUM-149 cells [6] = experiment: ApoTox-Glo Triplex assay, SUM-149; format: cell-based, human; conditions: SUM-149, 24 h
Procedure: Cells (9.5 × 10^4/well in 75 μL of fresh medium) were dispensed in 96-well black flat bottom (8807BC, Corning) plates. The cells were incubated for 12 h at 37°C and then treated with compounds (25 μL) for 24 h. DMSO was used as a negative control, and staurosporine was used as the positive control. […] Then, the Caspase-Glo® 3/7 Reagent was added; plates were mixed briefly by orbital shaking (300-500 rpm for ∼30 s), followed by an additional 30 min incubation at RT. Then luminescence, which correlates with caspase 3/7 activation, was recorded with a plate reader to […] apoptosis induction.

For `CC(C)[C@@H](C)/C=C/[C@@H](C)[C@H]1CC[C@@H]2[C@]1(C)CC[C@H]1[C@]23C=C[C@]2(C[C@@H](O)CC[C@]12C)OO3` [EP, ergosterol peroxide], the “ROS formation (fold)” value (MDA-MB-231 cells [1]) was “twofold”, the “de novo protein synthesis inhibition” value (MDA-MB-231 cells [2]) was “do not inhibit” and the cancer cell migration (SUM-149 cells [3]) was “decreases cancer cell migration”. For the same compound, the EC50 (MDA-MB-231 cells [4]) was 19 µM, the EC50 (Sup-B15 cells) was 9.86 µM and the invading cells (SUM-149 cells [5]; 10 μM) was “significant reduction”. The decrease in invasion (SUM-149 cells [5]; 15 μM) was 43%, the EC50 (Uocb-1 cells) was 13.6 µM and the “caspase 3/7 activity” value (SUM-149 cells [6]) was “increase caspase 3/7 activity”. The “viability (GF-AFC)” value (SUM-149 cells [6]) was “decrease viability”.
